{
  "source": "patent US8652518B2",
  "about": "“Compositions and methods for the prevention and treatment of diseases or conditions associated with oxidative stress, inflammation, and metabolic dysregulation” (priority 2012, dated 2014)",
  "key": {"MMP2": {"test_system": "MMP2", "settings": "mice with the highest survival rates; cited from earlier work"}, "bFGF": {"test_system": "bFGF", "settings": "mice with the highest survival rates; cited from earlier work"}, "VEGF": {"test_system": "VEGF", "settings": "mice with the highest survival rates; cited from earlier work"}, "sarcoma S-180 cells": {"test_system": "sarcoma S-180 cells", "settings": "high dose; cited from earlier work"}, "[1]": {"test_system": "atrophic or neovascular AMD", "settings": "group with the highest dietary intake of either carotenoid; cited from earlier work"}, "[2]": {"test_system": "thyroid nodule localized to the right side of the thyroid gland", "assay": "Case 2: subject with thyroid nodule given the preferred embodiment", "format": "in vivo", "settings": "increasing doses, before the preferred embodiment", "excerpt": "[…]"}},
  "data": [
    {"smiles": "O=C1O[C@H]([C@@H](O)CO)C(O)=C1O", "note": "[vitamin C, ascorbic acid]", "values": [
      {"measurement": "inhibition of expression of MMP2 gene", "setting": "MMP2", "result": 4, "unit": "times"},
      {"measurement": "inhibition of expression of bFGF gene", "setting": "bFGF", "result": 0.3, "unit": "times"},
      {"measurement": "inhibition of expression of VEGF gene", "setting": "VEGF", "result": 7, "unit": "times"},
      {"measurement": "increase of survival rate as compared to control models", "setting": "sarcoma S-180 cells", "result": 20, "unit": "%"}
    ]},
    {"smiles": "CC1=C[C@H](O)CC(C)(C)[C@H]1/C=C/C(C)=C/C=C/C(C)=C/C=C/C=C(C)/C=C/C=C(C)/C=C/C1=C(C)C[C@@H](O)CC1(C)C", "note": "[lutein]", "values": [
      {"measurement": "reduction in the risk of developing atrophic or neovascular AMD", "setting": "[1]", "result": "forty"}
    ]},
    {"smiles": "CC1=C(/C=C/C(C)=C/C=C/C(C)=C/C=C/C=C(C)/C=C/C=C(C)/C=C/C2=C(C)C[C@@H](O)CC2(C)C)C(C)(C)C[C@H](O)C1", "note": "[zeaxanthin]", "values": [
      {"measurement": "reduction in the risk of developing atrophic or neovascular AMD", "setting": "[1]", "result": "forty"}
    ]},
    {"smiles": "N[C@@H](Cc1cc(I)c(Oc2cc(I)c(O)c(I)c2)c(I)c1)C(=O)O", "note": "[levothyroxine sodium]", "values": [
      {"measurement": "effect on growth of the thyroid nodule", "setting": "[2]", "result": "did not seem to inhibit the growth of the nodule"}
    ]}
  ]
}
